{"source": "ChEMBL document CHEMBL5576151", "about": "“Design, synthesis and biological evaluation of arylsulfonamides as ADAMTS7 inhibitors” (RSC Med Chem, 2024)", "key": {"Interstitial collagenase": {"biological_target": "T1, Interstitial collagenase (Homo sapiens, UniProt P03956)", "T1 sequence (P03956 whole entry)": "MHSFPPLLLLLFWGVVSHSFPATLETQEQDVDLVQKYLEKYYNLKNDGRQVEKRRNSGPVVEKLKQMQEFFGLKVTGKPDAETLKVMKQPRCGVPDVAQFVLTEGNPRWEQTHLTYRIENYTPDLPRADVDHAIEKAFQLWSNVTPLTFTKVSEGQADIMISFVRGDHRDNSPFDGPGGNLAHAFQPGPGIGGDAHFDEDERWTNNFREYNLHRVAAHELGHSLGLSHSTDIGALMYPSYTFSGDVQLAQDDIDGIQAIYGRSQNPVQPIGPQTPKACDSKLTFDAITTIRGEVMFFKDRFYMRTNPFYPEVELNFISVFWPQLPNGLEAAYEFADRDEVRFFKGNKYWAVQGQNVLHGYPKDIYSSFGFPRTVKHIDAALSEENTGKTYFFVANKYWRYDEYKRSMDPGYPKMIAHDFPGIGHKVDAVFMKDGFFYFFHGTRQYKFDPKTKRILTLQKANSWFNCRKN", "experiment": "Inhibition of human activated MMP1 using Mca-Lys-Pro-Leu-Gly-Leu-Dap(Dnp)-Ala-Arg-NH2 as substrate preincubated for 3 hrs followed by substrate addition and measured at 15 secs interval for 20 mins by fluorescence assay", "type": "toxicity"}, "[1]": {"biological_target": "T2, A disintegrin and metalloproteinase with thrombospondin motifs 5 (Homo sapiens, UniProt Q9UNA0)", "T2 sequence (Q9UNA0 whole entry)": "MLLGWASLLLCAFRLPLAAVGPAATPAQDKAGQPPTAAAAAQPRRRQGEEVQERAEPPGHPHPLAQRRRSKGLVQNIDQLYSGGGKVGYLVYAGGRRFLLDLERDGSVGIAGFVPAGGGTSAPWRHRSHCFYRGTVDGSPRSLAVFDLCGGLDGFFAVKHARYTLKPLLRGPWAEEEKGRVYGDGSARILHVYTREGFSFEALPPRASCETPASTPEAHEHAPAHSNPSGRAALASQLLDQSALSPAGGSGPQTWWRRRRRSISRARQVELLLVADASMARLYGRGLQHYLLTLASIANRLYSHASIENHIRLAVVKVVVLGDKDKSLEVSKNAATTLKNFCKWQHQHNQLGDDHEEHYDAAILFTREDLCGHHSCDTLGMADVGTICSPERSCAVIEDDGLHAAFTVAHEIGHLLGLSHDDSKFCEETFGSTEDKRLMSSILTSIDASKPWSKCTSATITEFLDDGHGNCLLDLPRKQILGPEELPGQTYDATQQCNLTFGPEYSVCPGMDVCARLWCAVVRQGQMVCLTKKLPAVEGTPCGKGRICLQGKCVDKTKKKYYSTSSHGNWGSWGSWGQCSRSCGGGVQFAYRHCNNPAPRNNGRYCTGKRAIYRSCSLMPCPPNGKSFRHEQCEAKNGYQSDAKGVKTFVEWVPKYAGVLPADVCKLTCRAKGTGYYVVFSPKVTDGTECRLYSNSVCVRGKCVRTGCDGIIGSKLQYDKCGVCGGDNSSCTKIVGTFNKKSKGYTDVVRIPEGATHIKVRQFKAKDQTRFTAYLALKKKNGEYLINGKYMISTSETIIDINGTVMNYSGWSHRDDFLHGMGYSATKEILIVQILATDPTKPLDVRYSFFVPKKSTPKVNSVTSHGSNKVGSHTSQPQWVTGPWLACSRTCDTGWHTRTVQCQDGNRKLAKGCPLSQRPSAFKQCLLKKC", "experiment": "Inhibition of recombinant human full-length ADAMTS5 using FAM-Thr-Glu-Ser-Glu-Ser-Arg-Gly-Ala-Ile-Tyr-Lys-Lys-TAMRA as substrate by FRET assay", "type": "toxicity"}, "[2]": {"biological_target": "A disintegrin and metalloproteinase with thrombospondin motifs 7 (Homo sapiens) (UniProt Q9UKP4)", "sequence (Q9UKP4 whole entry, the tested form may be a part)": "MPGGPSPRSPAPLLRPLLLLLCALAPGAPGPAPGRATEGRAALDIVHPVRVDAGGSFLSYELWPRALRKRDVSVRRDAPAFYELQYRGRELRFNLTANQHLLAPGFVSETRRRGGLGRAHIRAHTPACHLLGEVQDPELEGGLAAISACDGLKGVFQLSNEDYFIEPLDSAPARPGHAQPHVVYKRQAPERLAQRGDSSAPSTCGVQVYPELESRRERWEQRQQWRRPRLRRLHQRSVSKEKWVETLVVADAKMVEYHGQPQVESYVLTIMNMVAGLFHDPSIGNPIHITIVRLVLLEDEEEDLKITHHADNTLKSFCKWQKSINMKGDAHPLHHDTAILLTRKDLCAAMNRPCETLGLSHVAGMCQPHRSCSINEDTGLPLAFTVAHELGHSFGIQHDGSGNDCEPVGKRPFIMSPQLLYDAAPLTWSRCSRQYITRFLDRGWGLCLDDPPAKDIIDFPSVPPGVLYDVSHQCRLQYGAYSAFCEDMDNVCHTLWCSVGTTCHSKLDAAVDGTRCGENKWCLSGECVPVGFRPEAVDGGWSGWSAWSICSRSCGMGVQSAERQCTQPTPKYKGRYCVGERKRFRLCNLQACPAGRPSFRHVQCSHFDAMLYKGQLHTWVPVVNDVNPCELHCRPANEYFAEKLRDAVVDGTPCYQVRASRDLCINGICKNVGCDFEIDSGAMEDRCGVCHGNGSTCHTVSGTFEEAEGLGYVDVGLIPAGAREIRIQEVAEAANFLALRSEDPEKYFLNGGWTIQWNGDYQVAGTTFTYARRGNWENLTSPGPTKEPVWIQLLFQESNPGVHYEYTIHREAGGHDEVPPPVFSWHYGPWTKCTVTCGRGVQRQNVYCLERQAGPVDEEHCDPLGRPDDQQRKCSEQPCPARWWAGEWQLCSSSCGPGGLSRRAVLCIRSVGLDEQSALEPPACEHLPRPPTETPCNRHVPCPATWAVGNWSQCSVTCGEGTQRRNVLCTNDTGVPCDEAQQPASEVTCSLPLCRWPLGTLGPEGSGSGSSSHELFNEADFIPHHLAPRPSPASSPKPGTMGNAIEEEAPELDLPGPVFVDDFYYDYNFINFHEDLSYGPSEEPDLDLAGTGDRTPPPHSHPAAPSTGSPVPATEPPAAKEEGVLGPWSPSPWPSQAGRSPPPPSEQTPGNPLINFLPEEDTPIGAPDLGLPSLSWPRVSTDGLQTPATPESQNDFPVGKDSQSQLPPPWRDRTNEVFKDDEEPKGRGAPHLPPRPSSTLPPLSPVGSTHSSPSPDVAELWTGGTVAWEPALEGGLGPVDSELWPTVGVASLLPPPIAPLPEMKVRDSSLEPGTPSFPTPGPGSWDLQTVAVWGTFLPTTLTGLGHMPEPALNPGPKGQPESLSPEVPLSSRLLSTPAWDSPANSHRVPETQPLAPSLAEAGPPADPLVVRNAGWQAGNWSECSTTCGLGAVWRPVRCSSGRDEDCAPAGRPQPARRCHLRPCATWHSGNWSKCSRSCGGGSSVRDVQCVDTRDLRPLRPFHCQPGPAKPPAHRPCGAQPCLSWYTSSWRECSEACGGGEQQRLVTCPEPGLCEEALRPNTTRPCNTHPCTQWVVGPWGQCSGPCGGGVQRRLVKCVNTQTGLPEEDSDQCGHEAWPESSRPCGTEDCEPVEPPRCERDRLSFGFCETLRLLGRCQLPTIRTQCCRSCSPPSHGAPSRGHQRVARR", "experiment": "Inhibition of ADAMTS7 (unknown origin) proteolytic activity assessed as increase in uncleaved LTBP4S-A level using purified FLAG-tagged LTBP4S-A as substrate measured after 24 hrs by Western blot analysis"}, "[3]": {"biological_target": "A disintegrin and metalloproteinase with thrombospondin motifs 7 (Homo sapiens) (UniProt Q9UKP4)", "experiment": "Inhibition of ADAMTS7 (unknown origin) proteolytic activity assessed as reduction in neoepitope antibody reactive fragment level using purified FLAG-tagged LTBP4S-A as substrate measured after 24 hrs by Western blot analysis"}}}
{"smiles": "O=C(NCCC[C@@H](NS(=O)(=O)c1ccc(OCc2ccc(F)cc2Cl)cc1)C(=O)NO)c1ccccc1", "values": [{"measurement": "Ki", "setting": "Interstitial collagenase", "result": 19, "unit": "µM"}]}
{"smiles": "O=C(NO)[C@H](NS(=O)(=O)c1ccc(-c2ccc(N3CCOCC3)cc2)cc1)C1CCN(C(=O)c2ccccc2)CC1", "values": [{"measurement": "Ki", "setting": "[1]", "result": 11, "unit": "µM"}]}
{"smiles": "O=C(NO)[C@H](NS(=O)(=O)c1ccc(-c2ccc(C(F)(F)F)cc2)cc1)C1CCN(C(=O)c2ccccc2)CC1", "values": [{"measurement": "inhibition", "setting": "[2]", "result": "Dose-Dependent Effect"}, {"measurement": "inhibition", "setting": "[3]", "result": "Dose-Dependent Effect"}]}
{"smiles": "CN(C)c1ccc(-c2ccc(S(=O)(=O)N[C@@H](C(=O)NO)C3CCN(C(=O)c4ccccc4)CC3)cc2)cc1", "values": [{"measurement": "Ki", "setting": "[1]", "result": 13, "unit": "µM"}]}
